Like-named read-outs stand apart in the source and are kept apart here. Where a SMILES comes first, the peptide text is derived from it.
Columns and labels:
[1] = test system: peripheral blood mononuclear cells; assay: Viability of mononuclear cells, flow cytometry after propidium iodide; format: cell-based, human
Method: The possibility that Gly-Pro-Gly may affect the viability and/or function of normal human circulating lymphomonocytic cells was examined by adding Gly-Pro-Gly to unfractionated and T cell enriched (CD2^+ = nominal T cells; CD4^+ = putative helper/inducer T cell subset; CD8+ = putative cytotoxic/suppressor T cell subset) peripheral blood mononuclear cell suspensions from healthy normal blood donors.
Thus, the viability of peripheral blood mononuclear cells exposed to Gly-Pro-Gly (2 mM, 4 days) was 99.67% and that of corresponding unexposed cells was 99.66% (mean of 4 experiments).

[2] = In vivo toxicity, growth of mice after intraperitoneal injections; settings: intraperitoneal injections starting at an age of 6 days; compared with controls
Description: In an in vivo test of the toxicity of Gly-Pro-Gly, groups of mice were given intraperitoneal injections of the substance starting at an age of 6 days. Figure 3 also graphically depicts the results. […] The peptides are thus non-toxic even when given in large doses.

[3] = test system: HTLV IIIB/H9 N.Y.
Method: (§1) Table 1 lists the peptides and their amino acid sequences tested against the following virus/cell systems: • (1) HTLV-111B/H9 Denmark (obtained from Denmark, Bent Faber-Vestergard); • (2) HTLV-111B/H9 New York (obtained from Dr. William Hall, North Shore Hospital, Manhasset, N.Y.); and • (3) ELI-1/HUT (obtained from Dr. Levy, San Francisco, CA).
(§2) Virus at 100 50% tissue culture infectious doses (TCID50) and peptides at concentrations of 250 and 25 µg/ml were added to the cells simultaneously and incubated for 2 hours at 4°C with frequent stirring. Subsequently, the temperature was increased to 37°C and the mixtures were subjected to a second incubation for 2 hours. Following the second incubation, the cells were centrifuged at 325 x g and washed once in RPMI medium (Gibco Laboratories, NY). Cells, at a concentration of 5 x 10^5/ml, were then added to 24 multidish well plates at a final volume of 1.5 ml of growth medium (RPMI supplemented with 10% fetal calf serum (FCS), antibiotics and polybrene (2 µg/ml)), with the addition of peptides at dilutions of 250 or 25 µg/ml. […] As additional controls, two HIV infected cell cultures (designated pos. controls 1 and 2, Tables 3-5) and two uninfected cell cultures (designated neg. controls 1 and 2) were used.
(§3) Infected cells were continuously monitored for formation of syncytia and the growth medium supernatants were analyzed at days 9-12 p.i. for p24 antigen which is an indicator of HIV replication.
(§4) Briefly, the following protocol was used for detection of the p24 antigen. HIV p24 antigen was determined using a rabbit anti-p24 polyclonal antiserum as capture antibody and a biotinylated rabbit anti-p24 polyclonal antibody was used as detecting antibody in an avidin-horse radish peroxidase (HRP) ELISA. The sensitivity of the assay allowed detection of approximately 50 pg of p24 antigen per ml supernatant. […] Serial dilutions of the supernatants were made so as to detect p24 concentration in the most accurate range (< 2.0 absorbance units).
(§5) At the end of the experiment, the cells were collected and fixed on slides with acetone according to standard procedures as described in Jeansson et al., Exp. Cell Res., 161:181-188 (1985). The number of infected cells were then determined by indirect immunofluorescence using a human HIV positive serum diluted 1/100 and FITC conjugated antihuman IgG (Bio Merieux, France) diluted 1/200.
(§6) In tables 3-6, the p24 content of the supernatants of infected cells was determined by diluting the supernatants of infected cells in serial tenfold dilutions (1/10, 1/100, 1/1000 and 1/10,000) and analyzing in ELISA as described above. Results are indicated by the absorbance values (454nm) of respective dilutions.
The peptides in their carboxy and amido forms were obtained from Bachem Feinchemikalien AG (Switzerland, GPG-NH2 Bachem, GPG-COOH, Bachem, PG-NH2 Bachem and PG-COOH Bachem) and Syntello (Sweden, GPG-NH2 Syntello). The effectiveness of the peptides was determined by both p24 production and syncytia formation as described in Example 2.
In tables 8 and 9, the p24 content of the supernatants of infected cells was determined by diluting the supernatants in serial tenfold dilutions (1/10, 1/100, 1/1,000) and analyzing by ELISA as described in Example 2. Results are indicated by the absorbance values (454 nm) of respective dilutions.

[4] = test system: ELI1/HUT
Method: as §1, §2, §3, §4, §5, §6

[5] = test system: HTLV IIIB/H9 Denmark
Method: as §1, §2, §3, §4, §5, §6

[6] = test system: HTLV-IIIB replication in H9 cells; assay: Dose response and combination experiments, p24 ELISA; format: cell-based, HIV; settings: Human immunodeficiency virus 1, IIIB, H9, read-out: approximate ID50 (p24 antigen reduced by 50%), supernatants diluted 1/5
Method: The results in Tables 10 and 11 were obtained as described in Example 2. The supernatants were tested for p24 on day 8 p.i. Supernatants were serially diluted (1/5, 1/50 and 1/500) and analyzed by ELISA as described in Example 2.

## NCC(=O)N1CCC[C@H]1C(=O)NCC(N)=O [GPG, Gly-Pro-Gly-NH2] (H-Gly-Pro-Gly-NH2)
[1]; 2 mM, 4 days, mean of 4 experiments, unexposed cells 99.66%
  viability of peripheral blood mononuclear cells: 99.67%
[1]; doses as high as 2 mM, exposure as long as 4 days
  effect on viability of cultured monocytes and lymphocytes: did not appreciably affect the viability
[2]
  influence on the growth of mice: no significant influence

## Cc1cn([C@H]2C[C@H](N=[N+]=[N-])[C@@H](CO)O2)c(=O)[nH]c1=O [AZT, azidothymidine]
[3]; 0.2 µM
  # OF SYNCYTIA/WELL Day 9: 22
  # OF SYNCYTIA/WELL Day 14: >100
  % OF POS CELLS: 10%
[3]; 0.2 µM, Table 6
  # OF SYNCYTIA/WELL Day 14: 29
  PERCENTAGE OF AG POS CELLS: 30
[3]; 2 µM
  # OF SYNCYTIA/WELL Day 9: 11
  # OF SYNCYTIA/WELL Day 14: >100
  % OF POS CELLS: 10-15%
[3]; 2 µM, Table 6
  # OF SYNCYTIA/WELL Day 14: 4
  PERCENTAGE OF AG POS CELLS: 0.5-2
[3]; 20 µM
  # OF SYNCYTIA/WELL Day 9: 0
  # OF SYNCYTIA/WELL Day 14: 11
  % OF POS CELLS: 0-1%
[3]; 20 µM, Table 6
  # OF SYNCYTIA/WELL Day 14: 0
[4]; 0.2 µM
  PERCENTAGE OF POS CELLS: 10
[4]; 2 µM
  PERCENTAGE OF POS CELLS: 10
[4]; 20 µM
  PERCENTAGE OF POS CELLS: 10-15
[5]; 0.2 µM
  # OF SYNCYTIA/WELL Day 9: 16
  % OF POS CELLS: 5-10%
[5]; 2 µM
  # OF SYNCYTIA/WELL Day 9: 10
  % OF POS CELLS: 5-8%
[5]; 20 µM
  # OF SYNCYTIA/WELL Day 9: 0
  % OF POS CELLS: 0.1-1%
[6]; day 8 postinfection
  IC50: ~400 nM
[6]; twelve days after infection
  IC50: ~3200 nM

Reference: EP0545991B1, “PEPTIDES THAT BLOCK HUMAN IMMUNODEFICIENCY VIRUS INFECTIONS AND METHODS OF USE THEREOF” (VAHLNE, Anders, priority 1990, dated 1992)
